Key:
[1] = biological target: Cholinesterase (Equus caballus) (UniProt P81908); assay: Inhibition of equine serum BChE at 100 ug/ml preincubated for 15 mins followed by addition of S-butyrylthiocholine chloride as substrate measured after 30 mins by Ellman's microplate assay
Cholinesterase [2] = biological target: T1, Cholinesterase (Equus caballus, UniProt P81908); assay: Mixed-type inhibition of equine serum BChE preincubated for 15 mins followed by addition of S-butyrylthiocholine chloride as substrate measured after 30 mins by Lineweaver-Burk plot analysis
T1 sequence (P81908 whole entry): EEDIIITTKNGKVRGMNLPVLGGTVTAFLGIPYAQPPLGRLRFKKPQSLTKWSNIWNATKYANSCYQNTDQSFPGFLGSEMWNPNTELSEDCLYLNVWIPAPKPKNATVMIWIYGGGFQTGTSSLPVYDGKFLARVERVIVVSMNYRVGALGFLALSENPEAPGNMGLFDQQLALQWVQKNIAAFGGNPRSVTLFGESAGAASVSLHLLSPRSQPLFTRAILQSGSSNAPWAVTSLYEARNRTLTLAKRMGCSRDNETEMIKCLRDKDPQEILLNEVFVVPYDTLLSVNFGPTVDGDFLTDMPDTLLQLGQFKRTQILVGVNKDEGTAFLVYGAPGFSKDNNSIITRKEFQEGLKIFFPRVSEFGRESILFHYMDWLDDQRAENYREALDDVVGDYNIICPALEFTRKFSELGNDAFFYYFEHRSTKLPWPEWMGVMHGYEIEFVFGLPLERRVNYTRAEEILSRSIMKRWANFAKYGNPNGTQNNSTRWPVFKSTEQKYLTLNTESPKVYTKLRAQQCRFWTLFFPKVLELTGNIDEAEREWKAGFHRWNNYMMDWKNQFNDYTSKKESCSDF

[3] = biological target: Acetylcholinesterase (Electrophorus electricus) (UniProt O42275); assay: Inhibition of electric eel AChE at 100 ug/ml preincubated for 15 mins followed by addition of acetylthiocholine iodide as substrate measured after 30 mins by Ellman's microplate assay
Sequence of Acetylcholinesterase (Electrophorus electricus) (O42275 24-633 limits assumed): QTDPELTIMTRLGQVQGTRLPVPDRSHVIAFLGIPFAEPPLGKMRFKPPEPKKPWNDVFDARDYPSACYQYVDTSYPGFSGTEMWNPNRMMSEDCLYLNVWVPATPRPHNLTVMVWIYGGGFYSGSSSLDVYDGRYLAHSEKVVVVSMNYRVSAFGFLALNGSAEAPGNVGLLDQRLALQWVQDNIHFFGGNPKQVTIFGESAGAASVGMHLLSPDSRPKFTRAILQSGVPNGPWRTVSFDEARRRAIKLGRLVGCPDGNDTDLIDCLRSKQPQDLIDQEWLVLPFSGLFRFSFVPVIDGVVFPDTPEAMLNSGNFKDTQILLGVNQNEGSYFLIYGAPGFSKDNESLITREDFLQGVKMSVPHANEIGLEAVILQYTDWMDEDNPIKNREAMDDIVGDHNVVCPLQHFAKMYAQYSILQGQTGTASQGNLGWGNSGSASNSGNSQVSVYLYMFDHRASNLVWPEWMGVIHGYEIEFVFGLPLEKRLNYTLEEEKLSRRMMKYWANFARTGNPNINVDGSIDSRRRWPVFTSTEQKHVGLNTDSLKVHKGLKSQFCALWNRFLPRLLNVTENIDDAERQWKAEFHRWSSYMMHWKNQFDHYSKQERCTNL

Cholinesterase [4] = biological target: T1, Cholinesterase; assay: Inhibition of equine serum BChE preincubated for 15 mins followed by addition of S-butyrylthiocholine chloride as substrate measured after 30 mins by Ellman's microplate assay
[5] = Selectivity ratio, ratio of IC50 for electric eel AChE to equine serum BChE
Acetylcholinesterase = Acetylcholinesterase (Electrophorus electricus, UniProt O42275); assay: Inhibition of electric eel AChE preincubated for 15 mins followed by addition of acetylthiocholine iodide as substrate measured after 30 mins by Ellman's microplate assay
Sequence of Acetylcholinesterase (O42275 whole entry): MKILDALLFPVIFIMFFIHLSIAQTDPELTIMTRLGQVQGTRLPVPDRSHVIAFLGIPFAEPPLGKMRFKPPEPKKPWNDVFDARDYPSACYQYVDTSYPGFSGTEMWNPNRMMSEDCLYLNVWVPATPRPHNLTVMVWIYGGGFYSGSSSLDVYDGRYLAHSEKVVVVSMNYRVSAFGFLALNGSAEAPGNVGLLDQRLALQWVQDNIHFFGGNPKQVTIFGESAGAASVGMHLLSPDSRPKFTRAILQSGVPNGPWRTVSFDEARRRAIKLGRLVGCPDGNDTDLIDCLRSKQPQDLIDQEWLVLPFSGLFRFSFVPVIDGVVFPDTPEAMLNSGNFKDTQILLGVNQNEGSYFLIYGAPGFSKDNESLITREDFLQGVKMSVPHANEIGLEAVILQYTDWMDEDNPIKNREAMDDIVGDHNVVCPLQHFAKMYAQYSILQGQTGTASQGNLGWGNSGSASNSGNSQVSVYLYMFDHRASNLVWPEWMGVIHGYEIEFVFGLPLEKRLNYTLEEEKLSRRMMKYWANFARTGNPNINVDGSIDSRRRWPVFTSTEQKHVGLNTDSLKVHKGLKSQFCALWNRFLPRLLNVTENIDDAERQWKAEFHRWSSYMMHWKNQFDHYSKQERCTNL

[6] = Selectivity ratio, ratio of IC50 for equine serum BChE to electric eel AChE

Sequence of Cholinesterase (Equus caballus) (P81908 whole entry): as the sequence (P81908 whole entry) above

| Structure (SMILES) | inhibition [1] | Ki (Cholinesterase [2]) | inhibition [3] | IC50 (Cholinesterase [4]) | Ratio IC50 [5] | IC50 (Acetylcholinesterase) | Ratio IC50 [6] |
| --- | --- | --- | --- | --- | --- | --- | --- |
| COc1c(OC)c(OC)c2c(ccc3ccccc32)c1CCN(C)C | 95.2% | 6.72 µM | 31.6% | 3.95 µM |  |  |  |
| COc1cc2c(cc1O)C[C@@H]1NCCc3cc(OC)c(OC)c-2c31 | 22.6% |  | 17.5% |  |  |  |  |
| COc1cc2c3c(c1OC)-c1cc4c(cc1C[C@@H]3NCC2)OCO4 | 75.8% |  | 50.4% | 94.4 µM | 2.18 | 206 µM | 0.46 |
| COc1cc2c3c(c1O)C1(CCC(O)CC1)CC3NCC2 (stereo not given) | 52.1% |  | 27.9% | 288 µM |  |  |  |
| COc1cc2c(cc1O)C[C@H]1c3c(cc(OC)c(OC)c3-2)CCN1C | 51% |  | 38.8% | 219 µM |  |  |  |
| COc1cc2c(cc1O)CCN(C)C2Cc1ccc(O)cc1 (stereo not given) | 37.3% |  | 14.9% |  |  |  |  |
| COc1ccc(C2=C(c3ccc(O)cc3)CN3CCC[C@@H]3C2)cc1OC | 59.4% |  | 51.4% | 167 µM | 1.21 | 202 µM | 0.83 |
| COc1cc(CCN(C)C)c2ccc3ccccc3c2c1OC | 83.9% |  | 2.06% | 19.3 µM |  |  |  |
| COc1ccc(C[C@H]2c3cc(O)c(OC)cc3CCN2C)cc1O [(S)-RETICULINE] | 84.1% |  | 53% | 65 µM | 4.63 | 301 µM | 0.22 |

Source: ChEMBL document CHEMBL3826956, “Cholinesterase inhibitory activity of isoquinoline alkaloids from three Cryptocarya species (Lauraceae)” (Bioorg Med Chem, 2016)
